Assay results published in patent publication US11208422B2, “Substituted bridged diazepane derivatives and use thereof as TASK-1 and TASK-3 inhibitors” (Bayer Pharma Aktiengesellschaft, priority 2017, dated 2021).

Tests used:
recombinant TASK-3 = recombinant TASK-3 (Homo sapiens (Human), UniProt Q9NPC2); test: Inhibition of recombinant TASK-3 in stably transfected CHO cells (KCl-induced depolarization, voltage-sensitive dye, FLIPR); format: cell-based; settings: depolarization induced by 40 mM potassium chloride, some mean values from multiple determinations
recombinant TASK-3, sequence (Q9NPC2 whole entry): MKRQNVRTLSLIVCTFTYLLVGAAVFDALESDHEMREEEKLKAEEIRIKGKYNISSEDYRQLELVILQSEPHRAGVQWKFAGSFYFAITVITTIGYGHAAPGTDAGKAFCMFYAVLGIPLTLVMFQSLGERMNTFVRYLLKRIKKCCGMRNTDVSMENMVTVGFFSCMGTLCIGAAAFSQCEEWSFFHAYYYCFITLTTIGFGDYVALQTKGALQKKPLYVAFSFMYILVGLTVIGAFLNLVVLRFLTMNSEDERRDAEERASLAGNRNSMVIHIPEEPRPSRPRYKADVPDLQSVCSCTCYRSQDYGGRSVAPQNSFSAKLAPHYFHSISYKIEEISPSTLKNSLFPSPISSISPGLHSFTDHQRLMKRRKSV
Method: (§1) The compounds of the invention were tested here with administration of 40 mM of potassium chloride in the presence of a voltage-sensitive dye using the method described in detail in the following references [Whiteaker et al., Validation of FLIPR membrane potential dye for high-throughput screening of potassium channel modulators, J. Biomol. Screen. 6 (5), 305-312 (2001); Molecular Devices FLIPR Application Note: Measuring membrane potential using the FLIPR® membrane potential assay kit on Fluorometric Imaging Plate Reader (FLIPR®) systems, http://www.moleculardevices.com/reagents-supplies/assay-kits/ion-channels/flipr-membrane-potential-assay-kits]. The activity of the test substances was determined as their ability to inhibit a depolarization induced in the recombinant cells by 40 mM potassium chloride. The concentration which can block half of this depolarization is referred to as IC50.

recombinant TASK-1 = recombinant TASK-1 (Homo sapiens (Human), UniProt O14649); test: Inhibition of recombinant TASK-1 in stably transfected CHO cells (KCl-induced depolarization, voltage-sensitive dye, FLIPR); format: cell-based; settings: depolarization induced by 40 mM potassium chloride, some mean values from multiple determinations
recombinant TASK-1, sequence (O14649 whole entry): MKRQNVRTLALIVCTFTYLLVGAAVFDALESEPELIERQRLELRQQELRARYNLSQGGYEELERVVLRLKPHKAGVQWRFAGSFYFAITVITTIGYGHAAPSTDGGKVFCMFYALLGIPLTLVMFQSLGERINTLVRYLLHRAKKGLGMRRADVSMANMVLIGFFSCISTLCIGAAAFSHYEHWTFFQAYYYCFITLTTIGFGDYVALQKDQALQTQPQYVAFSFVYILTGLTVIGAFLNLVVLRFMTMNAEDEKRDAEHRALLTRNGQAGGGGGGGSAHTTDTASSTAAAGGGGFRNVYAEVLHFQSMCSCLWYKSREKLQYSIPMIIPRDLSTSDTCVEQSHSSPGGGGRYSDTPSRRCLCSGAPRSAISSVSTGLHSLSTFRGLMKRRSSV
Method: as §1

SMILES	IC50 (recombinant TASK-3) [µM]	IC50 (recombinant TASK-1) [µM]
COc1ccc(F)c(C(=O)N2C3CCN(Cc4c(-c5ccc(Cl)cc5)nc5ccccn45)CC2COC3)n1 (racemic) [Example 92, [3-{[2-(4-chlorophenyl)imidazo[1,2-a]pyridin-3-yl]methyl}-8-oxa-3,10-diazabicyclo[4.3.1]dec-10-yl](3-fluoro-6-methoxypyridin-2-yl)methanone]	0.0025	0.085
COc1ccc(Cl)c(C(=O)N2CCC3CCC2CN3Cc2c(-c3ccc(Cl)cc3)nc3ccccn23)n1 (centres unmarked) [Example 39]	0.013	0.37
CC(C)c1ccc(-c2nc3ncccn3c2CN2C3CCC2CN(C(=O)c2ccccc2F)CC3)cc1 (centres unmarked) [Example 63]	0.8	8.4
O=C(c1ccccc1F)N1C2CCC1CN(Cc1c(-c3ccc(Cl)cc3)nc3ccccn13)CC2 (racemic) [Example 69, [3-{[2-(4-chlorophenyl)imidazo[1,2-a]pyridin-3-yl]methyl}-3,9-diazabicyclo[4.2.1]non-9-yl](2-fluorophenyl)methanone]	0.062	1.4
O=C(c1ccccc1F)N1CCC2CCC1CN2Cc1c(-c2ccc(Cl)cc2)nc2ccccn12 (centres unmarked) [Example 36]	1	30
Nc1nonc1C(=O)N1CCC2CCC1CN2Cc1c(-c2ccc(Cl)cc2)nc2ccccn12 (centres unmarked) [Example 29]	0.0044	0.66
COc1ccc(F)c(C(=O)N2CCC3CCC2CN3Cc2c(-c3ccc(Cl)cn3)nc3ccccn23)n1 (centres unmarked) [Example 19]	0.58	13.5
O=C(c1ccccc1F)N1C2CCC1CN(Cc1c(-c3ccc(Cl)cc3)nc3ncccn13)CC2 (single isomer, unassigned; (-)) [Example 81, (−)-[3-{[2-(4-chlorophenyl)imidazo[1,2-a]pyrimidin-3-yl]methyl}-3,9-diazabicyclo[4.2.1]non-9-yl](2-fluorophenyl)methanone]	0.0092	0.59
COc1ccc(F)c(C(=O)N2C3CCC2CN(Cc2c(-c4ccc(Cl)cc4)nc4ncccn24)CC3)n1 (single isomer, unassigned) [Example 82, [3-{[2-(4-chlorophenyl)imidazo[1,2-a]pyrimidin-3-yl]methyl}-3,9-diazabicyclo[4.2.1]non-9-yl](3-fluoro-6-methoxypyridin-2-yl)methanone]	0.0014	0.03
COc1ccc(F)c(C(=O)N2C3CCC2CN(Cc2c(-c4ccc(C(C)C)cc4)nc4ncccn24)CC3)n1 (centres unmarked) [Example 103]	0.2	1.4
COc1ccc(F)c(C(=O)N2C3CCC2CN(Cc2c(-c4ccc(Cl)cc4)nc4ccccn24)CC3)n1 (single isomer, unassigned) [Example 79, [3-{[2-(4-chlorophenyl)imidazo[1,2-a]pyridin-3-yl]methyl}-3,9-diazabicyclo[4.2.1]non-9-yl](3-fluoro-6-methoxypyridin-2-yl)methanone]	0.011	0.29
Cc1nonc1C(=O)N1C2CCN(Cc3c(-c4ccc(Cl)cc4)nc4ccccn34)CC1COC2 (racemic) [Example 73, [3-{[2-(4-chlorophenyl)imidazo[1,2-a]pyridin-3-yl]methyl}-8-oxa-3,10-diazabicyclo[4.3.1]dec-10-yl](4-methyl-1,2,5-oxadiazol-3-yl)methanone]	0.005	0.099
COc1cccc(C(=O)N2CCC3CCC2CN3Cc2c(-c3ccc(Cl)cc3)nc3ccccn23)n1 (centres unmarked) [Example 26]	0.0069	0.83
COc1ccc(F)c(C(=O)N2CCC3CCC2CN3Cc2c(-c3ccc(Cl)cc3)nc3ccccn23)n1 (centres unmarked) [Example 27]	0.003	0.15
COc1cccc(C(=O)N2CC3CCC2CN(Cc2c(-c4ccc(Cl)cc4)nc4ccccn24)C3)n1 (single isomer, unassigned) [Example 95, [3-{[2-(4-chlorophenyl)imidazo[1,2-a]pyridin-3-yl]methyl}-3,6-diazabicyclo[3.2.2]non-6-yl](6-methoxypyridin-2-yl)methanone]	0.71	4.9
CC(C)c1ccc(-c2nc3ncccn3c2CN2C3CCC2CN(C(=O)C2CCCC2)CC3)cc1 (centres unmarked) [Example 57]	2	6.2
O=C(c1ccccc1F)N1C2CCC1CN(Cc1c(-c3ccc(Cl)cc3)nc3ccccn13)CC2 (single isomer, unassigned) [Example 89, [3-{[2-(4-Chlorophenyl)imidazo[1,2-a]pyridin-3-yl]methyl}-3,9-diazabicyclo[4.2.1]non-9-yl](2-fluorophenyl)methanone]	0.019	0.31
COc1cccc(C(=O)N2C3CCC2CN(Cc2c(-c4ccc(Cl)cn4)nc4ccccn24)CC3)n1 (single isomer, unassigned) [Example 85, [3-{[2-(5-chloropyridin-2-yl)imidazo[1,2-a]pyridin-3-yl]methyl}-3,9-diazabicyclo[4.2.1]non-9-yl](6-methoxypyridin-2-yl)methanone]	0.37	6.3
COc1cccc(C(=O)N2C3CCC2CN(Cc2c(-c4ccc(Cl)cn4)nc4ccccn24)CC3)n1 (single isomer, unassigned) [Example 84, [3-{[2-(5-chloropyridin-2-yl)imidazo[1,2-a]pyridin-3-yl]methyl}-3,9-diazabicyclo[4.2.1]non-9-yl](6-methoxypyridin-2-yl)methanone]	0.025	0.35

SMILES	IC50 (recombinant TASK-3) [µM]	IC50 (recombinant TASK-1) [µM]
Cc1nonc1C(=O)N1C2CCN(Cc3c(-c4ccc(Cl)cc4)nc4ncccn34)CC1COC2 (racemic) [Example 76, [3-{[2-(4-chlorophenyl)imidazo[1,2-a]pyrimidin-3-yl]methyl}-8-oxa-3,10-diazabicyclo[4.3.1]dec-10-yl](4-methyl-1,2,5-oxadiazol-3-yl)methanone]	0.066	1.4
O=C(c1ccccc1F)N1C2CCN(Cc3c(-c4ccc(Cl)cc4)nc4ccccn34)CC1COC2 (racemic) [Example 71, (3-{[2-(4-chlorophenyl)imidazo[1,2-a]pyridin-3-yl]methyl}-8-oxa-3,10-diazabicyclo[4.3.1]dec-10-yl](2-fluorophenyl)methanone]	0.031	0.74
O=C(c1ccccc1F)N1CCC2CCC1CN2Cc1c(-c2ccc(Cl)cc2)nc2ncccn12 (centres unmarked) [Example 25]	0.011	1.1
CC(C)c1ccc(-c2nc3ncccn3c2CN2C3CCC2CN(C(=O)c2cccc(OC(F)F)n2)CC3)cc1 (centres unmarked) [Example 61]	1	9.4
O=C(c1ccccc1F)N1CCC2CCC1CN2Cc1c(-c2ccc(Cl)cn2)nc2ccccn12 (centres unmarked) [Example 30]	0.22	2.3
COc1cccc(C(=O)N2C3CCC2CN(Cc2c(-c4ccc(Cl)cc4)nc4ncccn24)CC3)n1 (single isomer, unassigned) [Example 86, [3-{[2-(4-chlorophenyl)imidazo[1,2-a]pyrimidin-3-yl]methyl}-3,9-diazabicyclo[4.2.1]non-9-yl](6-methoxypyridin-2-yl)methanone]	0.028	0.34
O=C(c1ccccc1F)N1C2CCN(Cc3c(-c4ccc(Cl)cc4)nc4ncccn34)CC1COC2 (racemic) [Example 74, [3-{[2-(4-chlorophenyl)imidazo[1,2-a]pyrimidin-3-yl]methyl}-8-oxa-3,10-diazabicyclo[4.3.1]dec-10-yl](2-fluorophenyl)methanone]	0.2	5
COc1cccc(C(=O)N2CCC3CCC(C2)N3Cc2c(-c3ccc(C(C)C)cc3)nc3ncccn23)n1 (centres unmarked) [Example 60]	1	5.2
CC(C)c1ccc(-c2nc3ncccn3c2CN2CC3CCC2CCN3C(=O)c2ccccc2F)cc1 (centres unmarked) [Example 46]	1	16
COc1ccc(Cl)c(C(=O)N2CCC3CCC(C2)N3Cc2c(-c3ccc(C(C)C)cc3)nc3ncccn23)n1 (centres unmarked) [Example 54]	0.29	0.78
O=C(c1ccccc1F)N1CCC2CCC1CN2Cc1c(-c2ccc(Cl)cn2)nc2ncccn12 (centres unmarked) [Example 31]	0.047	0.91
CC(C)c1ccc(-c2nc3ncccn3c2CN2C3CCC2CN(C(=O)c2cccc(OC(F)F)n2)CC3)cc1 (centres unmarked) [Example 56]	1	8.5
CC(C)c1ccc(-c2nc3ncccn3c2CN2CC3CCC2CCN3C(=O)C2CCCC2)cc1 (centres unmarked) [Example 52]	0.14	3.8
CC(C)c1ccc(-c2nc3ncccn3c2CN2CC3CCC2CCN3C(=O)c2ccccc2F)cc1 (centres unmarked) [Example 47]	0.18	3.1
COc1cccc(C(=O)N2CCC3CCC(C2)N3Cc2c(-c3ccc(C(C)C)cc3)nc3ncccn23)n1 (centres unmarked) [Example 55]	1	4
COc1ccc(Cl)c(C(=O)N2CCC3CCC2CN3Cc2c(-c3ccc(Cl)cn3)nc3ccccn23)n1 (centres unmarked) [Example 20]	0.197	3.35
Nc1nonc1C(=O)N1CCC2CCC1CN2Cc1c(-c2ccc(Cl)cc2)nc2ncccn12 (centres unmarked) [Example 24]	0.024	3.1
COc1ccc(F)c(C(=O)N2C3CCC2CN(Cc2c(-c4ccc(Cl)cn4)nc4ccccn24)CC3)n1 (single isomer, unassigned) [Example 16, [3-{[2-(5-Chloropyridin-2-yl)imidazo[1,2-a]pyridin-3-yl]methyl}-3,9-diazabicyclo[4.2.1]non-9-yl](3-fluoro-6-methoxypyridin-2-yl)methanone]	0.065	1.7
